PMC4669708 (Cell Death & Disease, 2015)

Tests used:
Experiment in all cases: c-ponatinib pulldown LC-MS/MS
Assay type in all cases: binding
MLKL = molecular target: T1, MLKL (Homo sapiens, UniProt Q8NB16)
T1 sequence (Q8NB16 1-471): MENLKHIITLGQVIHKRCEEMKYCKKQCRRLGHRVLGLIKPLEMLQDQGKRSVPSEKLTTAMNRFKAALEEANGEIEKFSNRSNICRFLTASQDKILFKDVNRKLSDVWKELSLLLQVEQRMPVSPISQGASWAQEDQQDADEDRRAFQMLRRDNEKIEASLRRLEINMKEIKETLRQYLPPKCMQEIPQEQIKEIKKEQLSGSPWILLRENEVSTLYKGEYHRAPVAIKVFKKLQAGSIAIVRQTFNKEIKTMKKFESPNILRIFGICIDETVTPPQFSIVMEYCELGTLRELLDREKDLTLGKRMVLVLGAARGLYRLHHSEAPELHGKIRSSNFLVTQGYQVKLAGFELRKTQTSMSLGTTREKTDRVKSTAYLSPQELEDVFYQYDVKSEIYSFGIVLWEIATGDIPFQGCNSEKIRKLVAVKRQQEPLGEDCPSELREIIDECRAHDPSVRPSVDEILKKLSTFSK
Method in brief: (§1)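 Spectral counts and search-engine scores from LC-MS/MS of tryptic eluates gave drug-protein specificity P-values. Eluates came from duplicate pulldowns of 10 mg lysate on 25 nmol immobilized c-ponatinib. Competition was the ratio of median counts with versus without free compound.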

HSPA8 = HSPA8 (Homo sapiens, UniProt P11142)
Sequence of HSPA8 (P11142 whole entry): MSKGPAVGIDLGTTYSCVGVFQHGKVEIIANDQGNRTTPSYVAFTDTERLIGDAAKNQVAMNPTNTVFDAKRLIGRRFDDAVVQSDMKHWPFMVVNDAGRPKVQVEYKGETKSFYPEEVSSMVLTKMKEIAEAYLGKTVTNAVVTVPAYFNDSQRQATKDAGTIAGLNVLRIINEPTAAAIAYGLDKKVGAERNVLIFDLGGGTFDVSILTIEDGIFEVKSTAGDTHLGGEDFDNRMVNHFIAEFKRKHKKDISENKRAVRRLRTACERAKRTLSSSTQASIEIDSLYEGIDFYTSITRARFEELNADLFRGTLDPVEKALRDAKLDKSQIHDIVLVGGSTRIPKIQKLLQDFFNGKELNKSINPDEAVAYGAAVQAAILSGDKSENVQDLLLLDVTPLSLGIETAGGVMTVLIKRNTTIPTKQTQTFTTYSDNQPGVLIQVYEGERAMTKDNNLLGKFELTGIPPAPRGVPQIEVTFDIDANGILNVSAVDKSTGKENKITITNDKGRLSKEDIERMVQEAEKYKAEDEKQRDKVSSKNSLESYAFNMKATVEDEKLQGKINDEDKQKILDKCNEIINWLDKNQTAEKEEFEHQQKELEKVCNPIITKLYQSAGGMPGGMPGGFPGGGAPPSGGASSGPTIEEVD
Method in brief: as §1

TUBA1B = TUBA1B (Homo sapiens, UniProt P68363)
Sequence of TUBA1B (P68363 whole entry): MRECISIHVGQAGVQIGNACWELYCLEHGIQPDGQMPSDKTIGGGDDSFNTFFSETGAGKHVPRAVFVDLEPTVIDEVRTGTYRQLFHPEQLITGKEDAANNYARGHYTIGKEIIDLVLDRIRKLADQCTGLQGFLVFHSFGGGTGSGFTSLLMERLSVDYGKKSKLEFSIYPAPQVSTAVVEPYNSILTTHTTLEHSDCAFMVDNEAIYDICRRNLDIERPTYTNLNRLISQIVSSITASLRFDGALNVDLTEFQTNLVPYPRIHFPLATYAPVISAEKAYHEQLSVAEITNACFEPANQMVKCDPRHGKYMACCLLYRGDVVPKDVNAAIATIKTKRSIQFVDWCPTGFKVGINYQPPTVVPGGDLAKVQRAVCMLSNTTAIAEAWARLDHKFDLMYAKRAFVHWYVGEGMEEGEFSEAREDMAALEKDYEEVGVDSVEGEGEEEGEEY
Sequence of TUBA1B (P07437 whole entry partner): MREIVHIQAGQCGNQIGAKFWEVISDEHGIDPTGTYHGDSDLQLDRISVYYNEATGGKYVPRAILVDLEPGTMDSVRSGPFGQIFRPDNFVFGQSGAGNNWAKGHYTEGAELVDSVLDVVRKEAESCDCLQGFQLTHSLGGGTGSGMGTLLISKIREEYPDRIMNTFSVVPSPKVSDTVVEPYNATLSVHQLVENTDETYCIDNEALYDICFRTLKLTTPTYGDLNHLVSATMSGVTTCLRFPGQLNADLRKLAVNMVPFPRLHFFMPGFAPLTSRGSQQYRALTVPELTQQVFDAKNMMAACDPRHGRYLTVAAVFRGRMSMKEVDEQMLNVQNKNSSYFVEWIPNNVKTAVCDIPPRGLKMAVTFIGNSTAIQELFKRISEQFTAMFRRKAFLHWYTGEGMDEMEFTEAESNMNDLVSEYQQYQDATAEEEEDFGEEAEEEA
Method in brief: as §1

BLK = BLK (Homo sapiens, UniProt P51451)
Sequence of BLK (P51451 whole entry): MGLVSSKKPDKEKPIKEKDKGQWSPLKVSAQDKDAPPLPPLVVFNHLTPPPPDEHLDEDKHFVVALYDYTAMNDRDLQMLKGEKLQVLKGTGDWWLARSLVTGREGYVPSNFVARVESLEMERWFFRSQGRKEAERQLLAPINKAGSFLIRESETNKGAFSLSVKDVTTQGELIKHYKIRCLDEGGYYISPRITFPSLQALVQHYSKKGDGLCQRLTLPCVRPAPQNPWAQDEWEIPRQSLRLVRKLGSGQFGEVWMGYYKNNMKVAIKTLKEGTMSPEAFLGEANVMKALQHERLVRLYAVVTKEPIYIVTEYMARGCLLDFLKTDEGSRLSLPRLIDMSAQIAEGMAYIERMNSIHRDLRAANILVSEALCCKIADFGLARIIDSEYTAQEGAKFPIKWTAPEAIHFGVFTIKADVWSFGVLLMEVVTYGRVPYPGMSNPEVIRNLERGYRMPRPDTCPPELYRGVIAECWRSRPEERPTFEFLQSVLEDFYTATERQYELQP
Method in brief: as §1

MAP4K4 = MAP4K4 (Homo sapiens, UniProt O95819)
Sequence of MAP4K4 (O95819 whole entry): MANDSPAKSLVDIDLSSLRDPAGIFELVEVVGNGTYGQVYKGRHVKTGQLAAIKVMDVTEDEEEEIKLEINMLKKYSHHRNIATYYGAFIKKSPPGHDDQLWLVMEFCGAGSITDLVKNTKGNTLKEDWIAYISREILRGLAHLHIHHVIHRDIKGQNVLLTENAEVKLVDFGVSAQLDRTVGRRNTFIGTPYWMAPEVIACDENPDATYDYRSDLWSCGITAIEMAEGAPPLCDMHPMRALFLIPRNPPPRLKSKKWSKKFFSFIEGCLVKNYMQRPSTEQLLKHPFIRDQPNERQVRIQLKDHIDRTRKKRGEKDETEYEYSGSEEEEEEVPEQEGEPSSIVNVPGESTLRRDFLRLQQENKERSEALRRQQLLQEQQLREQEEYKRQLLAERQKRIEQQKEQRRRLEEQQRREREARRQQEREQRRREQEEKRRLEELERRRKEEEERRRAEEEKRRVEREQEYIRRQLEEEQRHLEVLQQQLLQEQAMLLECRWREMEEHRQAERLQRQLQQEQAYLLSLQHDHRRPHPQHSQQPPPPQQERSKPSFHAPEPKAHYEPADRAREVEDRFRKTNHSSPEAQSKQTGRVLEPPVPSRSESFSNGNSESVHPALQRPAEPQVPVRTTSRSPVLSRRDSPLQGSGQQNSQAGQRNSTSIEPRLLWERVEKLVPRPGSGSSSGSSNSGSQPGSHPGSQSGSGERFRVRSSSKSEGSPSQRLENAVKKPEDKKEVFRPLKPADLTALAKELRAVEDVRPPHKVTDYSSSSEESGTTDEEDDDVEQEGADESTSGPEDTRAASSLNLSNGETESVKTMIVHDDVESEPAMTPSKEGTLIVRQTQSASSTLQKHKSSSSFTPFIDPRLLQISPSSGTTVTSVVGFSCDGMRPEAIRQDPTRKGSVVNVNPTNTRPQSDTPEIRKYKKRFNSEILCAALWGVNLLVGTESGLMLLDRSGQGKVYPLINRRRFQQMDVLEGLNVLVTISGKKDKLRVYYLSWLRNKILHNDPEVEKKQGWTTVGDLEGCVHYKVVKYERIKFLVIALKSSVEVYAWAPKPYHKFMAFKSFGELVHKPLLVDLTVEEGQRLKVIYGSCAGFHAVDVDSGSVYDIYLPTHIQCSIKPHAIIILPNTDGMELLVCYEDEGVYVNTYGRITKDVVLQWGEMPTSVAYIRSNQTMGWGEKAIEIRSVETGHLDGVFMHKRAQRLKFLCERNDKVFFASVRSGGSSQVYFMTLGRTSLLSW
Method in brief: as §1

YWHAG = molecular target: T2, YWHAG (Homo sapiens, UniProt P61981)
T2 sequence (P61981 1-247): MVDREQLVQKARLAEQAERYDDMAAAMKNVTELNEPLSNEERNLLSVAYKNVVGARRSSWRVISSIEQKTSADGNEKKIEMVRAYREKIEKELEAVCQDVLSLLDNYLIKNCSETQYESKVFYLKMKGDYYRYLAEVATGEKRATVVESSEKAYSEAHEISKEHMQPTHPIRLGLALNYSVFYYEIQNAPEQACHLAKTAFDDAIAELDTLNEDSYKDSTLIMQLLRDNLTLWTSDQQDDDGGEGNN
Method in brief: as §1

Av. SC comp. (MLKL; + free ponatinib): 0
Total SC comp. (MLKL; + free ponatinib): 0
Av. SC (MLKL; no competitor): 5
Total SC (MLKL; no competitor): 20
Av. SC comp. (HSPA8; + free ponatinib): 17.25
Total SC comp. (HSPA8; + free ponatinib): 69
Av. SC (HSPA8; no competitor): 29.25
Total SC (HSPA8; no competitor): 117
Av. SC comp. (TUBA1B; + free ponatinib): 10.25
Total SC comp. (TUBA1B; + free ponatinib): 41
Av. SC (TUBA1B; no competitor): 18.5
Total SC (TUBA1B; no competitor): 74
Av. SC comp. (BLK; + free ponatinib): 0
Total SC comp. (BLK; + free ponatinib): 0
Av. SC (BLK; no competitor): 9.5
Total SC (BLK; no competitor): 38
Av. SC comp. (MAP4K4; + free ponatinib): 10.75
Total SC comp. (MAP4K4; + free ponatinib): 43
Av. SC (MAP4K4; no competitor): 54.5
Total SC (MAP4K4; no competitor): 218
Av. SC comp. (YWHAG; + free ponatinib): 3.25
Total SC comp. (YWHAG; + free ponatinib): 13
Av. SC (YWHAG; no competitor): 11.25
Total SC (YWHAG; no competitor): 45
SMILES: Cc1ccc(C(=O)Nc2ccc(CN3CCN(CCCN)CC3)c(C(F)(F)F)c2)cc1C#Cc1cnc2cccnn12 [c-ponatinib]
